Reference: patent publication US20230213525A1, “DETECTING MICROBIAL INFECTION IN WOUNDS” (QUALIZYME DIAGNOSTICS GMBH & CO KG, priority 2016, published 2023)

Columns and labels:
Format in all cases: biochemical
[1] = biological target: T1, MPO (Homo sapiens, UniProt P05164); assay: Colorimetric enzyme assay for detection of myeloperoxidase activity; settings: 1 mg/mL, pH 6.4, 5 mM H2O2
T1 sequence (P05164 49-745): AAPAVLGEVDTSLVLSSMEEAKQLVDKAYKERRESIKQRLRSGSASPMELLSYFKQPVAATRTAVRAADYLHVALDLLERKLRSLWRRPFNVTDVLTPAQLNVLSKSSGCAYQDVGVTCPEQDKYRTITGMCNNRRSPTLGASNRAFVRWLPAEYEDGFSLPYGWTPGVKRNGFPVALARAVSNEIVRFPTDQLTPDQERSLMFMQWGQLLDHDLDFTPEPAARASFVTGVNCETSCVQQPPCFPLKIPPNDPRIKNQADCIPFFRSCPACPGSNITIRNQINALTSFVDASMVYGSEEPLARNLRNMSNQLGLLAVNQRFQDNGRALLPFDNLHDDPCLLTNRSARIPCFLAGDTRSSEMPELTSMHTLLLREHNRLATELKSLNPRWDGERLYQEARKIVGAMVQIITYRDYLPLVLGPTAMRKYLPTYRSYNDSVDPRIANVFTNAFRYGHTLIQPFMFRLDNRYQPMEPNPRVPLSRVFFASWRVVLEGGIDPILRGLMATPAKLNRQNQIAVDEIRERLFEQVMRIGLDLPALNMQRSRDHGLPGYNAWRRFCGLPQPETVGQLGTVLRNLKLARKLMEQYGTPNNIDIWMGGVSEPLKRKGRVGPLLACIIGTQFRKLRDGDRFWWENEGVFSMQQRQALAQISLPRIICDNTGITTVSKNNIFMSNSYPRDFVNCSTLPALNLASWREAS

[2] = test system: Phospholipase A2; assay: Phospholipase A2 based test, liquid system, wound fluid; settings: room temperature, 30 minutes
Description: Preparation of diagnostic system. For this diagnostic tool, 4-Nitro-3- octanoylbenzoic acid as Phospholipase A2 - substrate was used. 4-Nitro-3-octanoylbenzoic acid (1.7 mM) is dissolved in assay buffer containing 50 mM Tris/HCl buffer pH 7.2, 150 mM KCL and 10 mM CaC12. 190 µl of the buffer are pipetted into a microtiterplate.
(§1) This mixture is incubated at room temperature for 30 minutes.

[3] = test system: Phospholipase A2; assay: Phospholipase A2 based test, liquid system, sputum; settings: room temperature, 30 minutes
Description: For this diagnostic tool, 4-Nitro-3-octanoylbenzoic acid as Phospholipase A2 - substrate was used. 4-Nitro-3-octanoylbenzoic acid (1.7 mM) is dissolved in assay buffer containing 50 mM Tris/HCl buffer pH 7.2, 150 mM KCL and 10 mM CaC12. 190 µl of the buffer are pipetted into a microtiterplate.
as §1

[4] = biological target: T2, Myeloperoxidase (Homo sapiens, UniProt P05164); assay: Myeloperoxidase based test, cellulose based system, sputum; settings: filter paper discs, H202, 5 minutes
T2 sequence (P05164 49-745): T1 sequence (P05164 49-745)
Description: 1.5 µl of H202 (50 mM) and 1.5 µl of the substrates (109 mM ABTS, 454 mM TMB, 230 mM Fast Blue, x mM Guaiacol, x mM 4-Amino-3-methoxy benzoic acid) were incubated on small Whatmann Filterpaper discs.

[5] = test system: Catalase; assay: Catalase based test, liquid system, sputum; settings: room temperature, 30 minutes
Description: For this diagnostic tool: Purpald as substrate for catalase was used. Purpalt is dissolved in water (50-100 mM?). 200 µl of substrate solution are pipetted into a microtiterplate.
as §1

[6] = test system: Catalase; assay: Catalase based test, liquid system, wound fluid; settings: room temperature, 30 minutes
Description: For this diagnostic tool: Purpald as substrate for Catalase was used. Purpalt is dissolved in water (50-100 mM). 200 µl of substrate solution are pipetted into a microtiterplate.
as §1

[7] = biological target: T2, Myeloperoxidase; assay: Myeloperoxidase based test, liquid system, sputum; settings: succinate buffer pH 5.4, H202, 5 minutes
[8] = test system: Phospholipase C; assay: Phospholipase C based test, liquid system, wound fluid; settings: room temperature, 30 minutes, visual inspection
Description: For this diagnostic tool, p-Nitrophenylphosphorylcholine as substrate for Phospholipase C was used. p-Mtrophenylphosphorylcholine is dissolved in water (50-100 mM). A 250 mM: Tris/HCi buffer with 70% Sorbitol pH 7.2 was used as assay buffer. 230 µl of the buffer and 100 µl of the substrate are pipetted into a microtiterplate.
as §1

[9] = infected wound fluid samples A, B, C
[10] = non infected wound fluid samples D, E, F
[11] = infected sputum samples A, B, C
[12] = non infected sputum samples D, E, F

For `Nc1ccc(C(=O)O)cc1N` [3,4-Diamino benzoic acid], the “colour of solution upon MPO oxidation” value [1] was “turned brownish”.
With `CCCCCCCC(=O)c1cc(C(=O)O)ccc1[N+](=O)[O-]` [4-Nitro-3-octanoylbenzoic acid] the Test response [2, 9] was “yellow”, the Test response [2, 10] was “No colour change” and the Test response [3, 11] was “yellow”. For the same compound, the Test response [3, 12] was “No colour change”.
`COc1cc(C(=O)O)ccc1N` [Compound 4A3Mba, 4-Amino-3-methoxy benzoic acid] was tested, and the Test response ([4]; infected sputum samples A, B) was “brown” and the Test response ([4]; non infected sputum samples C, D) was “No colour change”.
With `NNc1n[nH]c(=S)n1N` [Purpald] the Test response [5, 11] was “yellow”, the Test response ([5]; non-infected sputum samples D, E, F) was “No colour change” and the Test response [6, 9] was “yellow”. The Test response [6, 10] was “No colour change”.
For `Cc1cc(-c2cc(C)c(N)c(C)c2)cc(C)c1N` [TMB, 3, 3′, 5, 5′ -Tetramethylbenzidine], the Test response [7, 11] was “blue” and the Test response [7, 12] was “No colour change”.
In the case of `C[N+](C)(C)CCOP(=O)([O-])Oc1ccc([N+](=O)[O-])cc1` [p-Nitrophenylphosphorylcholine], the Test response [8, 9] is reported as “yellow” and the Test response ([8]; non-infected wound fluid samples D, E, F) is reported as “No colour change”.
